From patent US8895568B2, “Compositions comprising substituted pteridines as agrochemicals” (Dow AgroSciences LLC, priority 2009, dated 2014)

Tests used:
Assay type in all cases: in vivo
[1] = tested on: Puccinia recondita tritici; assay: Leaf Rust of Wheat (PUCCRT), foliar spray, percent disease control; details: tested at 8.3 ppm
Method: The activity of the compounds as effective fungicides was determined by applying the compounds to plants and observing control of fungal disease. The compounds were formulated at 200 ppm in 10 vol. % acetone plus 90 vol. % Triton X water (deionized water 99.99 wt %+0.01 wt % Triton X100), giving a “formulated test compound.” In a few cases, compounds were formulated at 75 or 8.3 ppm rather than 200 ppm in 10 vol. % acetone plus 90 vol. % Triton X water (deionized water 99.99 wt. %+0.01 wt. % Triton X100), giving a “formulated test compound.” Formulated test compounds were applied to plants using a turn table sprayer fitted with two opposing air atomization nozzles which delivered approximately 1500 L/ha of spray volume. All plants were inoculated with spores of the fungus the day after treatment, then incubated in an environment conducive to disease development. Disease severity was evaluated 4 to 15 days later, depending on the disease and the speed of disease development. The following experiments were performed in the laboratory to determine the fungicidal efficacy of the compounds of the invention. […] Each pot contained 3-8 seedlings. These plants were sprayed until wet with the formulated test compounds. On the following day, the leaves were inoculated with an aqueous spore suspension of Puccinia recondita tritici and the plants were kept in high humidity overnight to permit spores to germinate and infect the leaf. The plants were then transferred to a greenhouse until disease developed on untreated control plants. […] The effectiveness of the test compounds at controlling disease when sprayed on leaves was determined by assessing the severity of disease on treated plants, then converting the severity to percent control based on the level of disease on untreated, inoculated plants. Data are the level (in percent) at which the given disease was controlled when the given compound was applied to the foliage of the plants at 200 ppm. In a few cases (noted in the table) the compound was applied to the plants at 75 ppm or 8.3 ppm.

Leptosphaeria nodorum = assay: Glume Blotch of Wheat (LEPTNO), foliar spray, percent disease control; details: Parastagonospora nodorum, tested at 75 ppm
Method: The activity of the compounds as effective fungicides was determined by applying the compounds to plants and observing control of fungal disease. The compounds were formulated at 200 ppm in 10 vol. % acetone plus 90 vol. % Triton X water (deionized water 99.99 wt %+0.01 wt % Triton X100), giving a “formulated test compound.” In a few cases, compounds were formulated at 75 or 8.3 ppm rather than 200 ppm in 10 vol. % acetone plus 90 vol. % Triton X water (deionized water 99.99 wt. %+0.01 wt. % Triton X100), giving a “formulated test compound.” Formulated test compounds were applied to plants using a turn table sprayer fitted with two opposing air atomization nozzles which delivered approximately 1500 L/ha of spray volume. All plants were inoculated with spores of the fungus the day after treatment, then incubated in an environment conducive to disease development. Disease severity was evaluated 4 to 15 days later, depending on the disease and the speed of disease development. The following experiments were performed in the laboratory to determine the fungicidal efficacy of the compounds of the invention. […] Each pot contained 3-20 seedlings. These plants were sprayed until wet with the formulated test compound. On the following day, the leaves were inoculated with an aqueous spore suspension of Leptosphaeria nodorum and the plants were kept in high humidity (one day in a dark dew chamber followed by four days in a lighted dew chamber) to permit spores to germinate and infect the leaf. The plants were then transferred to a greenhouse until disease developed on untreated control plants. […] The effectiveness of the test compounds at controlling disease when sprayed on leaves was determined by assessing the severity of disease on treated plants, then converting the severity to percent control based on the level of disease on untreated, inoculated plants. Data are the level (in percent) at which the given disease was controlled when the given compound was applied to the foliage of the plants at 200 ppm. In a few cases (noted in the table) the compound was applied to the plants at 75 ppm or 8.3 ppm.

Magnaporthe grisea = assay: whole plant or invertebrate; details: Pyricularia oryzae, foliar, read-out: PYRIOR percent control
[2] = tested on: DROSME, AEDSAE, LAPHEG, or HELIVI; assay: Insecticidal activity, active if any of DROSME, AEDSAE, LAPHEG or HELIVI was controlled at 80% or more; details: read-out: >80% mortality on any insect species @ 4000 ppm

| SMILES | pest or weed control at 8.3 ppm [1] [%] | pest or weed control at 75 ppm (Leptosphaeria nodorum) [%] | pest or weed control at 8.3 ppm (Magnaporthe grisea) [%] | pest or weed control at 4000 ppm [2] [%] |
| --- | --- | --- | --- | --- |
| COc1ccc2c(c1)CC(Nc1ncnc3ncc(C)nc13)C2 (stereo not drawn) [Compound 116] | 0 to 49 | 0 to 49 | 50 to 79 | > 80 |
| CC(C)(C)OC(=O)c1ccc(Oc2ccc(CCNc3ncnc4nccnc34)cc2)cc1 [Compound 154] | 80 to 100 | 80 to 100 | 80 to 100 |  |
| FC(F)(F)c1ccnc(Oc2ccc(CCNc3ncnc4nccnc34)cc2C(F)(F)F)c1 [Compound 227] | 80 to 100 | 80 to 100 |  |  |
| Cc1ccnc(Cl)c1Oc1ccc(CCNc2ncnc3nccnc23)cc1 [Compound 98] | 50 to 79 | 0 to 49 | 50 to 79 |  |
| Clc1csc(Oc2ccc(CCNc3ncnc4nccnc34)cc2)n1 [Compound 31] | 50 to 79 | 0 to 49 | 80 to 100 |  |
| FC(F)(F)c1cnc2nc(Oc3ccc(CCNc4ncnc5nccnc45)cc3)sc2c1 [Compound 32] | 50 to 79 | 0 to 49 | 50 to 79 |  |
| Cc1ccnc(Oc2ccc(CCNc3ncnc4nccnc34)cc2)c1F [Compound 99] | 80 to 100 | 50 to 79 | 80 to 100 |  |
| Fc1cc(Oc2ccc(C(F)(F)F)cn2)ccc1CCNc1ncnc2nccnc12 [Compound 105] | 80 to 100 | 80 to 100 | 80 to 100 |  |
| Fc1cnc(C(F)(F)F)c(F)c1Oc1ccc(CCNc2ncnc3ncc(Cl)nc23)cc1 [Compound 117] | 50 to 79 | 50 to 79 | 80 to 100 | > 80 |
| FC(F)(F)c1ccnc(Oc2ccc(CCOc3ncnc4nccnc34)cc2)c1 [Compound 206, 4-{2-[4-(4-Trifluoromethylpyridin-2-yloxy)-phenyl]-ethoxy}-pteridine] | 0 to 49 | 0 to 49 |  |  |
| N#Cc1c(Cl)cncc1Oc1cccc(CCNc2ncnc3nccnc23)c1 [Compound 70] | 50 to 79 | 0 to 49 | 50 to 79 |  |
| Cc1nc(NCCc2ccc(Oc3cc(C(F)(F)F)ccn3)cc2)c2nc(C)c(C)nc2n1 [Compound 226] | 0 to 49 | 0 to 49 | 0 to 49 |  |
| COc1ccc(CCNc2ncnc3nccnc23)cc1 [Compound 45] | 50 to 79 | 0 to 49 | 80 to 100 |  |
